Laboratory results: ChEMBL document CHEMBL1671792, “Conformationally constrained farnesoid X receptor (FXR) agonists: heteroaryl replacements of the naphthalene” (Bioorg Med Chem Lett, 2011)
≈ marks a conversion by molar mass, not a printed value. Calls of active or inactive are those of the source. The calls are words filed in the database; no cut-off is given here.

How the values were obtained:
[1] = species: Homo sapiens; experiment: Selectivity ratio of EC50 for human FXR to EC50 for human RORalpha
[2] = target: Cytochrome P450 2D6 (Homo sapiens, UniProt P10635); experiment: Inhibition of CYP2D6 in human liver microsome; format: microsomes
[3] = system: Mus musculus; experiment: Antidiabetic activity in diet-induced obese mouse assessed as NEFA level at 10 mg/kg, po for 4 weeks (reference value: 0.46 +/-0.02 mEq/dL); format: functional
[4] = system: Mus musculus; experiment: Antidiabetic activity in diet-induced obese mouse assessed as change in body weight at 30 mg/kg, po for 4 weeks measured after 4 weeks (reference value: 29.6+/-0.9 g); format: functional
[5] = Half life in iv dosed cynomolgus monkey; format: ADME, organism-based, Macaca fascicularis; conditions: in vivo
[6] = system: Mus musculus; experiment: Antidiabetic activity in diet-induced obese mouse assessed as serum glucose level at 100 mg/kg, po for 4 weeks (reference value: 316.5 +/-13.2 mg/dL); format: functional
[7] = system: Mus musculus; experiment: Antidiabetic activity in diet-induced obese mouse assessed as change in body weight at 30 mg/kg, po for 4 weeks measured after 3 weeks (reference value: 29.6+/-0.9 g); format: functional
[8] = Clearance in iv dosed mouse; format: ADME, organism-based; conditions: in vivo
[9] = system: Mus musculus; experiment: Antidiabetic activity in diet-induced obese mouse assessed as NEFA level at 100 mg/kg, po for 4 weeks (reference value: 0.46 +/-0.02 mEq/dL); format: functional
[10] = species: Homo sapiens; experiment: Selectivity ratio of EC50 for human FXR to EC50 for human PXR
[11] = system: Mus musculus; experiment: Antidiabetic activity in diet-induced obese mouse assessed as beta-hydroxybutyrate level at 30 mg/kg, po for 4 weeks (reference value: 1.7 +/-0.1 mg/dL); format: functional
[12] = Half life in iv dosed mouse; format: ADME, organism-based; conditions: in vivo
[13] = species: Homo sapiens; experiment: Selectivity ratio of EC50 for human FXR to EC50 for human LXRalpha
[14] = Solubility of compound in fasted state-simulated intestinal fluid at pH 6.5; format: physicochemical; conditions: simulated gi fluid
[15] = system: Mus musculus; experiment: Antidiabetic activity in diet-induced obese mouse assessed as glycerol level at 100 mg/kg, po for 4 weeks (reference value: 11.0 +/-1.3 mg/dL); format: functional
[16] = system: Mus musculus; experiment: Antidiabetic activity in diet-induced obese mouse assessed as serum glucose level at 10 mg/kg, po for 4 weeks (reference value: 316.5 +/-13.2 mg/dL); format: functional
[17] = system: Mus musculus; experiment: Antidiabetic activity in diet-induced obese mouse assessed as change in body weight at 30 mg/kg, po for 4 weeks measured after 1 week (reference value: 29.6+/-0.9 g); format: functional
[18] = system: Mus musculus; experiment: Antidiabetic activity in diet-induced obese mouse assessed as glycerol level at 10 mg/kg, po for 4 weeks (reference value: 11.0 +/-1.3 mg/dL); format: functional
[19] = Volume of distribution at steady state in iv dosed mouse; format: ADME, organism-based; conditions: in vivo, read-out: Vdss
[20] = Half life in iv dosed Beagle dog; format: ADME, organism-based, Canis lupus familiaris; conditions: in vivo
[21] = target: T1, Bile acid receptor (Homo sapiens) (UniProt Q96RI1); experiment: Binding affinity to human FXR by X-ray crystallography
T1 sequence (whole entry): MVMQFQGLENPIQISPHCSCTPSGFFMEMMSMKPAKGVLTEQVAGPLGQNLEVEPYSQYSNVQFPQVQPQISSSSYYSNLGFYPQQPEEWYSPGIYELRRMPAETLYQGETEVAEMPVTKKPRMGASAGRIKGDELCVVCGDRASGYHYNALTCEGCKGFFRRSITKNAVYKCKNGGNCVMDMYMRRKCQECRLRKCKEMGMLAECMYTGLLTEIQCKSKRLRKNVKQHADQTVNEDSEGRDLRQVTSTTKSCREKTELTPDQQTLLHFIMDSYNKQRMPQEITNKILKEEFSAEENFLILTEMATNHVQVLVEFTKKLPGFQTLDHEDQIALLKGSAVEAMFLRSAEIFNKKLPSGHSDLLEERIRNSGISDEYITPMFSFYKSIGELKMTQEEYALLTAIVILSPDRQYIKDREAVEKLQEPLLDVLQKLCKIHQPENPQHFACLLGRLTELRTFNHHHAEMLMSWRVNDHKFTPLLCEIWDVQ

[22] = Clearance in iv dosed cynomolgus monkey; format: ADME, organism-based, Macaca fascicularis; conditions: in vivo
[23] = species: Homo sapiens; experiment: Selectivity ratio of EC50 for human FXR to EC50 for human RXRalpha
[24] = system: Mus musculus; experiment: Antidiabetic activity in diet-induced obese mouse assessed as serum insulin level at 30 mg/kg, po for 4 weeks (reference value: […]); format: functional
[25] = system: Mus musculus; experiment: Antidiabetic activity in diet-induced obese mouse assessed as beta-hydroxybutyrate level at 100 mg/kg, po for 4 weeks (reference value: 1.7 +/-0.1 mg/dL); format: functional
[26] = Oral bioavailability in cynomolgus monkey; format: ADME, organism-based, Macaca fascicularis; conditions: in vivo
[27] = Volume of distribution at steady state in iv dosed Beagle dog; format: ADME, organism-based, Canis lupus familiaris; conditions: in vivo, read-out: Vdss
[28] = system: Mus musculus; experiment: Antidiabetic activity in diet-induced obese mouse assessed as glycerol level at 30 mg/kg, po for 4 weeks (reference value: 11.0 +/-1.3 mg/dL); format: functional
[29] = target: Cytochrome P450 2C9 (Homo sapiens, UniProt P11712); experiment: Inhibition of CYP2C9 in human liver microsome; format: microsomes
[30] = Permeability across MDCK cell membrane; format: ADME, cell-based, Canis lupus familiaris; conditions: dog
[31] = system: Mus musculus; experiment: Antidiabetic activity in diet-induced obese mouse assessed as serum insulin level at 100 mg/kg, po for 4 weeks (reference value: […]); format: functional
[32] = system: Rattus norvegicus; experiment: Dose normalized AUC in orally dosed rat; format: ADME, organism-based; conditions: in vivo, po
[33] = system: Mus musculus; experiment: Antidiabetic activity in diet-induced obese mouse assessed as change in body weight at 100 mg/kg, po for 4 weeks measured after 2 weeks (reference value: 29.1+/-0.8 g); format: functional
[34] = species: Homo sapiens; experiment: Selectivity ratio of EC50 for human FXR to EC50 for human PPARgamma
[35] = target: T2, Bile acid receptor (Homo sapiens, UniProt Q96RI1); experiment: Agonist activity at human FXR LBD assessed as SRC1 peptide recruitment by FRET assay; format: functional
T2 sequence (Q96RI1 whole entry): T1 sequence (whole entry)

[36] = Oral bioavailability in mouse; format: ADME, organism-based; conditions: in vivo
[37] = system: Cynomolgus monkey; experiment: Dose normalized AUC in orally dosed cynomolgus monkey; format: ADME, organism-based, Macaca fascicularis; conditions: in vivo, po
[38] = Clearance in iv dosed Beagle dog; format: ADME, organism-based, Canis lupus familiaris; conditions: in vivo
[39] = system: Mus musculus; experiment: Antidiabetic activity in diet-induced obese mouse assessed as change in body weight at 100 mg/kg, po for 4 weeks measured after 1 week (reference value: 29.1+/-0.8 g); format: functional

Cytochrome P450 2D6, sequence (P10635 whole entry): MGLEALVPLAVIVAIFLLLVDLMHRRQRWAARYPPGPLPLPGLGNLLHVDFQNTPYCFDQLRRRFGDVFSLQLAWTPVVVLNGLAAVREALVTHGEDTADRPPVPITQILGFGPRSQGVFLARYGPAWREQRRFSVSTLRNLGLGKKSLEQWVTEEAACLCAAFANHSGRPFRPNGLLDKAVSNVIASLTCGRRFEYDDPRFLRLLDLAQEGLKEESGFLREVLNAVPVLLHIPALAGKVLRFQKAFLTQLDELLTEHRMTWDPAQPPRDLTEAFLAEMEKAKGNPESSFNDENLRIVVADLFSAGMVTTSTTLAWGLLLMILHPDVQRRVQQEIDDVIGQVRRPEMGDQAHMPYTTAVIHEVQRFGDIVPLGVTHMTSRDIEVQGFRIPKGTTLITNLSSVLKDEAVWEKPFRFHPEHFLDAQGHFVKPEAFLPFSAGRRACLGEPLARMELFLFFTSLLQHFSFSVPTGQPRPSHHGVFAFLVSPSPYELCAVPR
Cytochrome P450 2C9, sequence (P11712 whole entry): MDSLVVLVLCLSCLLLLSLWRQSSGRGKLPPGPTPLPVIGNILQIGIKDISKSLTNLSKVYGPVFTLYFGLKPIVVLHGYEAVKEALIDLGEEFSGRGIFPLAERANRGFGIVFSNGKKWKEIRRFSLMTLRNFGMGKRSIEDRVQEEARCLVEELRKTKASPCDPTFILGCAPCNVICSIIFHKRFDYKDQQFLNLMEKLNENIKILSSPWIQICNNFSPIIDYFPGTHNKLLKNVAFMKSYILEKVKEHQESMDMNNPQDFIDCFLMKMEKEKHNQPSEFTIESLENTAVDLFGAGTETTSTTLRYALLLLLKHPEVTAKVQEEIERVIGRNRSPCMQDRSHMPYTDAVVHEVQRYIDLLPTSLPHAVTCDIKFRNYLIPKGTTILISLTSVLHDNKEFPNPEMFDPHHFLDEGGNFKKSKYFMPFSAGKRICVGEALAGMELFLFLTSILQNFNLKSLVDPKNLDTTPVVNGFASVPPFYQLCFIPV

## CC(C)c1onc(-c2c(Cl)cccc2Cl)c1COc1ccc(-c2ccc3nc(C(=O)O)ccc3c2)cc1
[1]
  Ratio EC50: 100
[2]
  IC50: > 33 µM
[3]
  Activity: 0.53 mEq/dL
[4]
  Activity: 27.3 g
[5]
  half-life: 2 h
[6]
  Activity: 241.4 mg/dL
[7]
  Activity: 27.5 g
[8]
  clearance: 23 mL/min/kg
[9]
  Activity: 0.65 mEq/dL
[10]
  Ratio EC50: 100
[11]
  Activity: 1.8 mg/dL
[12]
  half-life: 1.4 h
[13]
  Ratio EC50: 100
[14]
  solubility: 1 ng/mL (≈ 1.87 nM)
[15]
  Activity: 9.7 mg/dL
[16]
  Activity: 313 mg/dL
[17]
  Activity: 28.4 g
[18]
  Activity: 10.8 mg/dL
[19]
  Vd: 1.6 L/kg
[20]
  half-life: 1.83 h
[21]
  Activity: Active
[22]
  clearance: 3.1 mL/min/kg
[23]
  Ratio EC50: 100
[24]
  Activity: 0.58 ng/mL
[25]
  Activity: 3.3 mg/dL
[26]
  bioavailability: 15%
[27]
  Vd: 0.31 L/kg
[28]
  Activity: 10 mg/dL
[29]
  IC50: 4.4 µM
[30]
  Papp: 18.3 ×10⁻⁶ cm/s
[31]
  Activity: 0.34 ng/mL
[32]
  AUC: 130 ng·kg·h/mg/mL
[33]
  Activity: 23.2 g
[34]
  Ratio EC50: 100
[35]
  EC50: 0.12 µM
[36]
  bioavailability: 42%
[37]
  AUC: 850 ng·kg·h/mg/mL
[38]
  clearance: 4.4 mL/min/kg
[39]
  Activity: 25.6 g
